Measured values from US20230181570A1, “Transdermal Formulation Containing Apomorphine” (MEDRX CO., LTD., priority 2020, published 2023).
Structures can show the parent of a compound that is named as a salt.

Assay: Study of the solubility of apomorphine hydrochloride in various solvents

solubility (each used alone: water, 1,3-butanediol, polyethylene glycol, propylene glycol, glycerin, propylene carbonate): ≤ 3 % by weight
apomorphine hydrochloride solution able to be prepared (low molecular weight polyethylene glycol combined with propylene carbonate): 8 % by weight
solubility in propylene carbonate (propylene carbonate used alone): 0.25 % by weight
apomorphine hydrochloride solution able to be prepared (propylene glycol and propylene carbonate, weight of propylene glycol five times or more that of propylene carbonate): 10 % by weight
SMILES: CN1CCc2cccc3c2[C@H]1Cc1ccc(O)c(O)c1-3 [apomorphine hydrochloride]
